The values that follow come from article PMC7692735, “Bromo-Cyclobutenaminones as New Covalent UDP-N-Acetylglucosamine Enolpyruvyl Transferase (MurA) Inhibitors” (Pharmaceuticals, 2020).

One data set deals with MurA Cys115. The experiment in a line: MS/MS of tryptic digested MurA, covalent labelling. The note with it: tryptic peptide amino acids 104–120. The format is binding, E. coli. The procedure: The tryptic digestion method was adapted from our former publication.
Briefly, 50 μL of MurA (42 μM) and 10 μL 0.2% (w/v) RapiGest SF (Waters Corp., Milford, MA, USA) solution buffered with 50 mM ammonium bicarbonate (NH4HCO3) were mixed (pH = 7.8). 4.5 μL of 45 mM DTT (~200 nmol) in 100 mM NH4HCO3 was added and the mixture kept at 37.5 °C for 30 min. After cooling the sample to room temperature, 7.5 μL of 100 mM iodoacetamide (750 nmol) in 100 mM NH4HCO3 was added and the mixture placed in the dark at room temperature for 30 min. The reduced and alkylated protein was then digested by 10 μL (1 mg mL^−1) trypsin (the enzyme-to-protein ratio was 1:10) (Sigma, St Louis, MO, USA). The sample was incubated at 37 °C overnight. To degrade the surfactant, 7 μL of HCOOH (500 mM) solution was added to the digested […] sample to obtain the final 40 mM (pH ≈ 2) solution which was incubated at 37 °C for 45 min. For LC-MS analysis, the acid-treated sample was centrifuged for 5 min at 13,000 rpm.
A QTRAP 6500 triple quadruple—linear ion trap mass spectrometer, equipped with a Turbo V source in electrospray mode (AB Sciex Pte. Ltd., Framingham, MA, USA) and an Agilent 1100 Binary Pump HPLC system (Agilent Technologies, Waldbronn, Germany) equipped with an autosampler was used for LC-MS/MS analysis. […]

Data set [1] is described as follows: Aqueous stability assay in PBS buffer. The format is physicochemical. As to conditions: PBS buffer pH 7.4, room temperature; read-out: t1/2 aqueous degradation (converted). As to the method: (§1) The assay was adapted from our former publication.
(§2) For the glutathione assay, 500 μM solution of the fragment (PBS buffer pH 7.4, 10% MeCN, 250 μL) with 200 μM solution of indoprofen (Merck KGaA, Darmstadt, Germany) as internal standard was added to 10 mM glutathione (Merck KGaA, Darmstadt, Germany) solution (dissolved in PBS buffer, 250 μL) in a 1:1 ratio. The final concentration was 250 μM fragment, 100 μM indoprofen, 5 mM glutathione and 5% MeCN (500 μL). The final mixture was analyzed by HPLC-MS (Shimadzu LCMS-2020) after 0, 1, 2, 4, 20, 25, 48, 72 h time intervals. […] The AUC (area under the curve) values were determined via integration of HPLC spectra then corrected using the internal standard. […] The data are expressed as means of duplicate determinations, and the standard deviations were within 10% of the given values. […]
(§3) The reaction half-life for pseudo-first-order reactions is t1/2 = ln2/k, where k is the reaction rate. […] In our case, the corrected kdeg and keff (regarding blank and GSH-containing samples, respectively) can be calculated by linear regression of the data points of the kinetic measurements. The corrected kGSH is calculated by keff − kdeg, and finally, the half-life time is determined using the equation t1/2(GSH) = ln2/kGSH.

Data set [2] can be described thus: GSH reactivity assay (HPLC-MS). Format: physicochemical. The note with it: 250 μM fragment, 5 mM glutathione, PBS pH 7.4, 5% MeCN. As to the method: as §1, §2, §3
In a further data set the target is T1, MurA (E. coli) (Escherichia coli, UniProt P0A749).
T1 construct: made in house; host or cells: E. coli
T1 sequence (P0A749 whole entry): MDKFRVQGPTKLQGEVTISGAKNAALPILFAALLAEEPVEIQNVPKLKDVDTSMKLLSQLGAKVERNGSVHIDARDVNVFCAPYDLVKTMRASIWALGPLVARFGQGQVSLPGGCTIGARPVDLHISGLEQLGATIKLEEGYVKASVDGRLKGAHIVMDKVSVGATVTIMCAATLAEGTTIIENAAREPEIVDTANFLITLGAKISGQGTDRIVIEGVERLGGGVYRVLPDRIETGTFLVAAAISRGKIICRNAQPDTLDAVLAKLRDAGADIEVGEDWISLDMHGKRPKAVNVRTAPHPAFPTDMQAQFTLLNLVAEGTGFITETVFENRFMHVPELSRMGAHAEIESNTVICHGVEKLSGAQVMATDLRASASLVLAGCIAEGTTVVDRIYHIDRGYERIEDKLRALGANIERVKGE
Description: MurA assay, colorimetric malachite green method. The format is biochemical. The procedure: MurAEC protein was recombinant, expressed in E. coli. The inhibition of MurA was monitored with the colorimetric malachite green method in which orthophosphate generated during the reaction is measured. MurA enzyme (E. coli) was pre-incubated with the substrate UNAG and compound for 30 min at 37 °C. The reaction was started by the addition of the second substrate PEP, resulting in a mixture with a final volume of 50 μL. The mixtures contained: 50 mM Hepes, pH 7.8, 0.005% Triton X-114, 200 μM UNAG, 100 μM PEP, purified MurA (diluted in 50 mM Hepes, pH 7.8) and 500 μM of each tested compound dissolved in DMSO. All compounds were soluble in the assay mixtures containing 5% DMSO (v/v). After incubation for 15 min at 37 °C, the enzyme reaction was terminated by adding Biomol® reagent (100μL) and the absorbance was measured at 650 nm after 5 min. All of the experiments were run in duplicate. Remaining activities (RAs) were calculated with respect to similar assays without the tested compounds and with 5% DMSO. The IC50 values, the concentration of the compound at which the remaining activity was 50%, were determined by measuring the remaining activities at seven different compound concentrations. The data are expressed as means of duplicate determinations, and the standard deviations were within 10% of the given values. A time-dependent inhibition assay was also performed. The IC50 values were determined at 0, 15 and 30 min of pre-incubation.

SMILES strings stand for the structures. Entries after “also recorded” stand apart in the source; their conditions may differ.

One may read the IC50 as the concentration that inhibits the measured activity by half. Read a low IC50 as greater potency. Broadly, the remaining activity is the activity still measured, relative to the control.

As for `CN(C(=O)c1ccccc1)C1=C(Br)C(=O)C1(C)C` [17a, N-(2-bromo-4,4-dimethyl-3-oxocyclobut-1-en-1-yl)-N-methylbenzamide], the “Covalent labelling site on MurA by MS/MS” value with MurA Cys115 is given as “labelled on Cys115; also recorded: labeling on Cys115”. The half-life at 250 μM in data set [1] is 36.5 h. Moreover, the “kGSH rate constant of conjugation with GSH” value in data set [2] is 0.0128 M/min. In addition, on MurA (E. coli) (IC50, 30 min preincubation), the IC50 was 138 µM. Moreover, the remaining activity at 500 µM on MurA (E. coli) (fragment 500 μM, 30 min preincubation at 37 °C, read-out: RA (remaining activity) at 500 µM) was 12 ± 3%.
